± gives the expanded uncertainty stated by the source.
Conditions: Liquid

CCCC[N+](C)(C)C.O=S(=O)([N-]S(=O)(=O)C(F)(F)F)C(F)(F)F [butyltrimethylammonium bis(trifluoromethylsulfonyl)imide]
mass density (293.48 K, 101.33 kPa): 1396.3 ± 1.6 kg/m3
mass density (293.48 K, 1000 kPa): 1396.8 ± 1.2 kg/m3
mass density (293.49 K, 5000 kPa): 1398.8 ± 1.3 kg/m3
mass density (293.5 K, 40000 kPa): 1416.7 ± 2.7 kg/m3
mass density (293.51 K, 10000 kPa): 1401.4 ± 1.5 kg/m3
mass density (293.51 K, 20000 kPa): 1406.6 ± 1.9 kg/m3
mass density (293.51 K, 30000 kPa): 1411.7 ± 2.3 kg/m3
mass density (302.84 K, 101.33 kPa): 1387.9 ± 1.5 kg/m3
mass density (312.82 K, 101.33 kPa): 1379 ± 1.5 kg/m3
mass density (322.29 K, 5000 kPa): 1373.5 ± 1.3 kg/m3
mass density (322.31 K, 20000 kPa): 1382.2 ± 1.8 kg/m3
mass density (322.32 K, 10000 kPa): 1376.4 ± 1.5 kg/m3
mass density (322.32 K, 40000 kPa): 1393.2 ± 2.6 kg/m3
mass density (322.33 K, 101.33 kPa): 1370.5 ± 1.5 kg/m3
mass density (322.33 K, 30000 kPa): 1387.7 ± 2.2 kg/m3
mass density (322.34 K, 1000 kPa): 1371.1 ± 1.2 kg/m3
mass density (332.75 K, 101.33 kPa): 1361.3 ± 1.5 kg/m3
mass density (342.67 K, 101.33 kPa): 1352.5 ± 1.5 kg/m3
mass density (352.27 K, 20000 kPa): 1356.9 ± 1.8 kg/m3
mass density (352.29 K, 10000 kPa): 1350.5 ± 1.4 kg/m3
mass density (352.3 K, 5000 kPa): 1347.3 ± 1.3 kg/m3
mass density (352.32 K, 40000 kPa): 1369.1 ± 2.5 kg/m3
mass density (352.34 K, 30000 kPa): 1363 ± 2.1 kg/m3
mass density (352.36 K, 101.33 kPa): 1343.9 ± 1.4 kg/m3
mass density (352.36 K, 1000 kPa): 1344.6 ± 1.2 kg/m3
mass density (373.28 K, 5000 kPa): 1328.9 ± 1.2 kg/m3
mass density (373.3 K, 10000 kPa): 1332.4 ± 1.4 kg/m3
mass density (373.3 K, 20000 kPa): 1339.2 ± 1.7 kg/m3
mass density (373.31 K, 101.33 kPa): 1325.5 ± 1.4 kg/m3
mass density (373.31 K, 30000 kPa): 1345.8 ± 2 kg/m3
mass density (373.33 K, 1000 kPa): 1326.2 ± 1.1 kg/m3
mass density (373.35 K, 40000 kPa): 1352.3 ± 2.4 kg/m3
mass density (391.25 K, 30000 kPa): 1331.2 ± 2 kg/m3
mass density (391.26 K, 10000 kPa): 1316.9 ± 1.4 kg/m3
mass density (391.27 K, 1000 kPa): 1310.5 ± 1.1 kg/m3
mass density (391.28 K, 101.33 kPa): 1309.7 ± 1.4 kg/m3
mass density (391.28 K, 20000 kPa): 1324.2 ± 1.7 kg/m3
mass density (391.31 K, 5000 kPa): 1313.1 ± 1.2 kg/m3
mass density (391.31 K, 40000 kPa): 1338.1 ± 2.3 kg/m3
mass density (414.89 K, 30000 kPa): 1312.1 ± 1.9 kg/m3
mass density (414.92 K, 40000 kPa): 1319.5 ± 2.2 kg/m3
mass density (414.93 K, 101.33 kPa): 1288.6 ± 1.3 kg/m3
mass density (414.94 K, 5000 kPa): 1292.5 ± 1.2 kg/m3
mass density (414.94 K, 10000 kPa): 1296.6 ± 1.3 kg/m3
mass density (414.94 K, 20000 kPa): 1304.5 ± 1.6 kg/m3
mass density (414.95 K, 1000 kPa): 1289.4 ± 1.1 kg/m3

CCCC[N+]1(C)CCCC1.O=S(=O)([N-]S(=O)(=O)C(F)(F)F)C(F)(F)F
mass density (293.49 K, 101.33 kPa): 1398 ± 1.6 kg/m3
mass density (293.5 K, 10000 kPa): 1404 ± 1.5 kg/m3
mass density (293.5 K, 20000 kPa): 1409.8 ± 1.9 kg/m3
mass density (293.5 K, 30000 kPa): 1415.5 ± 2.3 kg/m3
mass density (293.5 K, 40000 kPa): 1421 ± 2.8 kg/m3
mass density (293.51 K, 1000 kPa): 1398.6 ± 1.2 kg/m3
mass density (293.51 K, 5000 kPa): 1401 ± 1.4 kg/m3
mass density (302.66 K, 101.33 kPa): 1390.1 ± 1.5 kg/m3
mass density (312.62 K, 101.33 kPa): 1381.5 ± 1.5 kg/m3
mass density (322.31 K, 10000 kPa): 1379.7 ± 1.5 kg/m3
mass density (322.31 K, 20000 kPa): 1386 ± 1.9 kg/m3
mass density (322.31 K, 40000 kPa): 1398.2 ± 2.6 kg/m3
mass density (322.32 K, 5000 kPa): 1376.4 ± 1.3 kg/m3
mass density (322.32 K, 30000 kPa): 1392.2 ± 2.2 kg/m3
mass density (322.33 K, 1000 kPa): 1373.8 ± 1.2 kg/m3
mass density (322.35 K, 101.33 kPa): 1373.2 ± 1.5 kg/m3
mass density (332.63 K, 101.33 kPa): 1364.3 ± 1.5 kg/m3
mass density (342.54 K, 101.33 kPa): 1355.9 ± 1.5 kg/m3
mass density (352.31 K, 20000 kPa): 1361.5 ± 1.8 kg/m3
mass density (352.31 K, 40000 kPa): 1374.5 ± 2.5 kg/m3
mass density (352.32 K, 101.33 kPa): 1347.5 ± 1.4 kg/m3
mass density (352.32 K, 10000 kPa): 1354.5 ± 1.4 kg/m3
mass density (352.33 K, 5000 kPa): 1351 ± 1.3 kg/m3
mass density (352.33 K, 30000 kPa): 1368.1 ± 2.1 kg/m3
mass density (352.35 K, 1000 kPa): 1348.1 ± 1.2 kg/m3
mass density (373.31 K, 5000 kPa): 1333.2 ± 1.3 kg/m3
mass density (373.31 K, 30000 kPa): 1351.3 ± 2.1 kg/m3
mass density (373.32 K, 1000 kPa): 1330.1 ± 1.2 kg/m3
mass density (373.33 K, 101.33 kPa): 1329.5 ± 1.4 kg/m3
mass density (373.33 K, 10000 kPa): 1337 ± 1.4 kg/m3
mass density (373.34 K, 20000 kPa): 1344.2 ± 1.7 kg/m3
mass density (373.34 K, 40000 kPa): 1358 ± 2.4 kg/m3
mass density (391.26 K, 1000 kPa): 1314.9 ± 1.2 kg/m3
mass density (391.29 K, 10000 kPa): 1322 ± 1.4 kg/m3
mass density (391.29 K, 30000 kPa): 1337 ± 2 kg/m3
mass density (391.3 K, 101.33 kPa): 1314.1 ± 1.4 kg/m3
mass density (391.3 K, 5000 kPa): 1318.1 ± 1.3 kg/m3
mass density (391.32 K, 20000 kPa): 1329.6 ± 1.7 kg/m3
mass density (391.32 K, 40000 kPa): 1344 ± 2.4 kg/m3
mass density (414.93 K, 101.33 kPa): 1293.9 ± 1.3 kg/m3
mass density (414.93 K, 5000 kPa): 1298.1 ± 1.2 kg/m3
mass density (414.93 K, 10000 kPa): 1302.4 ± 1.4 kg/m3
mass density (414.93 K, 20000 kPa): 1310.5 ± 1.6 kg/m3
mass density (414.93 K, 30000 kPa): 1318.1 ± 1.9 kg/m3
mass density (414.93 K, 40000 kPa): 1325.6 ± 2.3 kg/m3
mass density (414.94 K, 1000 kPa): 1294.7 ± 1.2 kg/m3

Source: the NIST ThermoML archive (doi:10.1021/je8002817)
